ChEMBL document CHEMBL5143521, “Identification of a selective BRD4 PROTAC with potent antiproliferative effects in AR-positive prostate cancer based on a dual BET/PLK1 inhibitor” (Eur J Med Chem, 2022)
Active and inactive are the calls of the source. No cut-off for these calls is given here.

What was measured:
[1] = biological target: Serine/threonine-protein kinase PLK1 (Homo sapiens, UniProt P53350); assay: Inhibition of recombinant full length human PLK1 using casein as substrate incubated for 40 mins in presence of [gamma-33P]-ATP by radiometric scintillation counting method
Serine/threonine-protein kinase PLK1, sequence (P53350 whole entry): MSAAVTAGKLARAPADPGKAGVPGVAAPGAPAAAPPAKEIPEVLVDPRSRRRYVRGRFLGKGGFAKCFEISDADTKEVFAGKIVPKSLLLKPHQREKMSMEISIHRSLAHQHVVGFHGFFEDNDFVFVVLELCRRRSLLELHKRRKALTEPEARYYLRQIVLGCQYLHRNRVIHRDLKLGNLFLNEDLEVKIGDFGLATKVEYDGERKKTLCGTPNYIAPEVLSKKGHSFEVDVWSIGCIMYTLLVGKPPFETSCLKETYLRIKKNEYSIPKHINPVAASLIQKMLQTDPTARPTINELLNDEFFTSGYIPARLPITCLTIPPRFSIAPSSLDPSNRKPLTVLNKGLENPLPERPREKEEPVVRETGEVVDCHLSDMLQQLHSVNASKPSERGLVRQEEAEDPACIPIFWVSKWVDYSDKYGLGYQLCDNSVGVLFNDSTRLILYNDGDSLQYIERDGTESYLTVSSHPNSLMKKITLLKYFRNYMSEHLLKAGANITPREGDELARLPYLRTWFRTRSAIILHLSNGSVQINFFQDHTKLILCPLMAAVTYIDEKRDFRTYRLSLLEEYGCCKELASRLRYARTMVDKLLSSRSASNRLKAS

[2] = biological target: Bromodomain-containing protein 4 (Homo sapiens, UniProt O60885); assay: Inhibition of BRD4 (unknown origin) by alpha-screen assay
MV4-11 = assay: Antiproliferative activity against human MV4-11 cells assessed as reduction in cell viability measured after 4 days by MTT assay; format: functional, cell-based; conditions: MV4-11, 96 h
[3] = biological target: Protein cereblon/Bromodomain-containing protein 4 (Homo sapiens) (UniProt O60885+Q96SW2); assay: Protac activity at BRD4/CRBN in human VCaP cells assessed as degradation of BRD4 by measuring downregulation of BRD4 expression level at 10 nM incubated for 24 hrs by immunoblotting analysis; format: cell-based
Protein cereblon/Bromodomain-containing protein 4 (Homo sapiens), sequence (Q96SW2 whole entry, looked up, other chains not shown): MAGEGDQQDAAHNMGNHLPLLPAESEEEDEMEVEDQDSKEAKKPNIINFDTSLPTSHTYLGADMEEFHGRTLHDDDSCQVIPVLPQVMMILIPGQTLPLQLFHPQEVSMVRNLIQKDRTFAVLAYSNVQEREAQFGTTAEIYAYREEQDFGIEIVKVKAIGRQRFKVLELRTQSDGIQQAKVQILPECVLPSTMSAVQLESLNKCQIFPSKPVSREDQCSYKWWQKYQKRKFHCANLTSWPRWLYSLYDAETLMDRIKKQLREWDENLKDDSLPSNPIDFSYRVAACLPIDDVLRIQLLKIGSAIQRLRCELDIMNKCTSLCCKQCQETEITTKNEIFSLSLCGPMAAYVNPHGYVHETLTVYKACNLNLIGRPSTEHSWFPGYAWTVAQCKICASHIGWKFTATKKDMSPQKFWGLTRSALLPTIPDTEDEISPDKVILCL

VCaP [4] = assay: Inhibition of c-Myc expression level in human VCap cells at 10 nM incubated for 24 hrs by immunoblotting analysis; format: functional, cell-based
CWR22R [5] = assay: Induction of cell cycle arrest in AR-positive human 22Rv1 cells assessed as upregulation of cyclin B1 expression at 1 to 3 uM measured after 72 hrs by Western blot analysis; format: functional, cell-based; conditions: dose 1-3 µM
CWR22R [6] = assay: Induction of cell cycle arrest in AR-positive human 22Rv1 cells assessed as downregulation of CDK2 expression at 1 to 3 uM measured after 72 hrs by Western blot analysis; format: functional, cell-based; conditions: dose 1-3 µM
LNCaP [7] = assay: Antiproliferative activity against AR-positive harmone sensitive human LNCaP cells assessed as reduction in cell viability measured after 4 days by MTT assay; format: functional, cell-based; conditions: 96 h
PC-3 [8] = assay: Inhibition of colony formation in AR-negative human castration resistant PC-3 cells at 1 nM measured after 12 days by crystal violet staining based assay; format: functional, cell-based; conditions: time 12.0 day
LNCaP [9] = assay: Antiproliferative activity against AR-positive harmone sensitive human LNCaP cells assessed as reduction in cell viability at 1 nM incubated for 3 days followed by compound washout and measured after 8 days; format: functional; conditions: 72 h, time 3 day
CWR22R [10] = assay: Antiproliferative activity against AR-positive human 22Rv1 cells assessed as reduction in cell viability measured after 4 days by MTT assay; format: functional, cell-based; conditions: 22Rv1, 96 h
CWR22R [11] = assay: Antiproliferative activity against AR-positive human 22Rv1 cells assessed as reduction in cell viability at 1 nM incubated for 3 days followed by compound washout and measured after 8 days; format: functional; conditions: 22Rv1, 72 h, time 3 day
DU-145 [12] = assay: Antiproliferative activity against negative human castration resistant DU-145 cells assessed as reduction in cell viability at 1 nM incubated for 3 days followed by compound washout and measured after 8 days; format: functional, cell-based; conditions: time 3.0 day
CWR22R [13] = assay: Induction of cell cycle arrest in AR-positive human 22Rv1 cells assessed as accumulation of cells at G2/M phase at 1 to 3 uM measured after 72 hrs by flow cytometry analysis; format: functional, cell-based; conditions: dose 1-3 µM
DU-145 [14] = assay: Antiproliferative activity against AR-negative human castration resistant DU-145 cells assessed as reduction in cell viability measured after 4 days by MTT assay; format: functional, cell-based; conditions: DU-145, 96 h
VCaP [15] = assay: Antiproliferative activity against AR-positive human VCaP cells assessed as reduction in cell viability measured after 4 days by MTT assay; format: functional, cell-based; conditions: 96 h
CWR22R [16] = assay: Inhibition of colony formation in AR-positive human 22Rv1 cells at 1 nM measured after 12 days by crystal violet staining based assay; format: functional, cell-based; conditions: time 12.0 day
PC-3 [17] = assay: Antiproliferative activity against AR-negative human castration resistant PC-3 cells assessed as reduction in cell viability measured after 4 days by MTT assay; format: functional, cell-based; conditions: PC-3, 96 h
CWR22R [18] = assay: Induction of cell cycle arrest in AR-positive human 22Rv1 cells assessed as downregulation of cyclin D1 expression at 1 to 3 uM measured after 72 hrs by Western blot analysis; format: functional, cell-based; conditions: dose 1-3 µM
CWR22R [19] = assay: Induction of cell cycle arrest in AR-positive human 22Rv1 cells assessed as downregulation of cyclin E expression at 1 to 3 uM measured after 72 hrs by Western blot analysis; format: functional, cell-based; conditions: dose 1-3 µM
CWR22R [20] = assay: Induction of cell cycle arrest in AR-positive human 22Rv1 cells assessed as downregulation of CDK6 expression at 1 to 3 uM measured after 72 hrs by Western blot analysis; format: functional, cell-based; conditions: dose 1-3 µM
DU-145 [21] = assay: Inhibition of colony formation in AR-negative human castration resistant DU-145 cells at 1 nM measured after 12 days by crystal violet staining based assay; format: functional, cell-based; conditions: time 12.0 day

Row | IC50 [1] | IC50 [2] | IC50 (MV4-11) | Compound | other results
1 | 1.19 µM | 0.37 µM | 0.013 µM | CC[C@@H]1c2nnc(C)n2-c2cnc(Nc3ccc(C(=O)NC4CCN(C(=O)CCCCOc5cccc6c5C(=O)N(C5CCC(=O)NC5=O)C6=O)CC4)cc3OC)nc2N1CC1CCCCC1 (some centres not stated) | –
2 | 3.82 µM | 0.379 µM | 0.188 µM | CC[C@@H]1c2nnc(C)n2-c2cnc(Nc3ccc(C(=O)NC4CCN(CCCCCCCCCCCOc5cccc6c5C(=O)N(C5CCC(=O)NC5=O)C6=O)CC4)cc3OC)nc2N1CC1CCCCC1 (some centres not stated) | –
3 | 1.98 µM | 0.259 µM | 0.018 µM | CC[C@@H]1c2nnc(C)n2-c2cnc(Nc3ccc(C(=O)NC4CCN(C(=O)CNc5cccc6c5CN(C5CCC(=O)NC5=O)C6=O)CC4)cc3OC)nc2N1CC1CCCCC1 (some centres not stated) | –
4 | 0.788 µM | 0.738 µM | 0.018 µM | CC[C@@H]1c2nnc(C)n2-c2cnc(Nc3ccc(C(=O)NC4CCN(C(=O)CCCOc5cccc6c5C(=O)N(C5CCC(=O)NC5=O)C6=O)CC4)cc3OC)nc2N1CC1CCCCC1 (some centres not stated) | –
5 | 1.23 µM | 0.435 µM | 0.007 µM | CC[C@@H]1c2nnc(C)n2-c2cnc(Nc3ccc(C(=O)NC4CCN(C(=O)CCCCCOc5cccc6c5C(=O)N(C5CCC(=O)NC5=O)C6=O)CC4)cc3OC)nc2N1CC1CCCCC1 (some centres not stated) | –
6 | 2.13 µM | 0.225 µM | 0.036 µM | CC[C@@H]1c2nnc(C)n2-c2cnc(Nc3ccc(C(=O)NC4CCN(CCCCCCCCCOc5cccc6c5C(=O)N(C5CCC(=O)NC5=O)C6=O)CC4)cc3OC)nc2N1CC1CCCCC1 (some centres not stated) | –
7 | 5.14 µM | 0.344 µM | 0.085 µM | CC[C@@H]1c2nnc(C)n2-c2cnc(Nc3ccc(C(=O)NC4CCN(CCCCCCCCOc5cccc6c5C(=O)N(C5CCC(=O)NC5=O)C6=O)CC4)cc3OC)nc2N1CC1CCCCC1 (some centres not stated) | –
8 | 1.84 µM | 0.658 µM | 0.01 µM | CC[C@@H]1c2nnc(C)n2-c2cnc(Nc3ccc(C(=O)NC4CCN(C(=O)CCCCCCOc5cccc6c5C(=O)N(C5CCC(=O)NC5=O)C6=O)CC4)cc3OC)nc2N1CC1CCCCC1 (some centres not stated) | –
9 | 1.34 µM | 0.311 µM | 0.753 µM | CC[C@@H]1c2nnc(C)n2-c2cnc(Nc3ccc(C(=O)NC4CCN(C(=O)CCCCNc5cccc6c5CN(C5CCC(=O)NC5=O)C6=O)CC4)cc3OC)nc2N1CC1CCCCC1 (some centres not stated) | –
10 | 5.57 µM | 0.284 µM | 0.153 µM | CC[C@@H]1c2nnc(C)n2-c2cnc(Nc3ccc(C(=O)NC4CCN(CCCCCCCCCCOc5cccc6c5C(=O)N(C5CCC(=O)NC5=O)C6=O)CC4)cc3OC)nc2N1CC1CCCCC1 (some centres not stated) | –
11 | 1.25 µM | 0.209 µM | 0.008 µM | CC[C@@H]1c2nnc(C)n2-c2cnc(Nc3ccc(C(=O)NC4CCN(CCCCCCCOc5cccc6c5C(=O)N(C5CCC(=O)NC5=O)C6=O)CC4)cc3OC)nc2N1CC1CCCCC1 (some centres not stated) | Activity [3]: Active; inhibition (VCaP [4]): Active
12 | 0.652 µM | 0.19 µM | 0.671 µM | CC[C@@H]1c2nnc(C)n2-c2cnc(Nc3ccc(C(=O)NC4CCN(C(=O)CCCCCCC(=O)Nc5cccc6c5CN(C5CCC(=O)NC5=O)C6=O)CC4)cc3OC)nc2N1CC1CCCCC1 (some centres not stated) | –
13 | – | – | – | CC[C@@H]1c2nnc(C)n2-c2cnc(Nc3ccc(C(=O)NC4CCN(C)CC4)cc3OC)nc2N1CC1CCCCC1 | Activity (CWR22R [5]): Active; Activity (CWR22R [6]): Active; IC50 (LNCaP [7]): 1.45 µM; inhibition (PC-3 [8]): Active; inhibition at 0.001 µM (LNCaP [9]): 100%; IC50 (CWR22R [10]): 0.58 µM; inhibition at 0.001 µM (CWR22R [11]): 100%; inhibition (DU-145 [12]): Active; Activity (CWR22R [13]): Active; IC50 (DU-145 [14]): 1.47 µM; IC50 (VCaP [15]): 0.628 µM; inhibition (CWR22R [16]): Active; IC50 (PC-3 [17]): 1.4 µM; Activity (CWR22R [18]): Active; Activity (CWR22R [19]): Active; Activity (CWR22R [20]): Active; inhibition (DU-145 [21]): Active
14 | 2.43 µM | 0.121 µM | 0.184 µM | CC[C@@H]1c2nnc(C)n2-c2cnc(Nc3ccc(C(=O)NC4CCN(CCCCCCOc5cccc6c5C(=O)N(C5CCC(=O)NC5=O)C6=O)CC4)cc3OC)nc2N1CC1CCCCC1 (some centres not stated) | –
15 | 1.21 µM | 0.288 µM | 0.01 µM | CC[C@@H]1c2nnc(C)n2-c2cnc(Nc3ccc(C(=O)NC4CCN(C(=O)CCCCCNc5cccc6c5CN(C5CCC(=O)NC5=O)C6=O)CC4)cc3OC)nc2N1CC1CCCCC1 (some centres not stated) | –
16 | 0.31 µM | 0.219 µM | 0.359 µM | CC[C@@H]1c2nnc(C)n2-c2cnc(Nc3ccc(C(=O)NC4CCN(CCCCNC(=O)COc5cccc6c5C(=O)C(C5CCC(=O)NC5=O)C6=O)CC4)cc3OC)nc2N1CC1CCCCC1 (some centres not stated) | –
17 | 1.12 µM | 0.151 µM | 0.021 µM | CC[C@@H]1c2nnc(C)n2-c2cnc(Nc3ccc(C(=O)NC4CCN(CCCCCOc5cccc6c5C(=O)N(C5CCC(=O)NC5=O)C6=O)CC4)cc3OC)nc2N1CC1CCCCC1 (some centres not stated) | –
